This is an account of results in patent publication US11439707B2, “Hypocrellin derivative substituted both in a peri-position and in 2-position by amino, preparation method, and application thereof” (priority 2017, dated 2022).

Data set [1] can be described thus: singlet oxygen efficiency test, reference rose bengal. The format is physicochemical.
Data set [2] can be described thus: photostability under 635 nm laser irradiation. The format is physicochemical. To be noted: 30 min, 20 mW/cm^2, FIG. 9. The procedure:
FIG. 9 is a comparison diagram of photostabilities of the hypocrellin derivative prepared in the present invention and a commercial photosensitizer. […] However, in the same condition, after being irradiated with a 635 nm laser for 30 min at a light intensity of 20 mW/cm^2, maximum absorption performance of the commercial porphin photosensitizer Ce6 is decreased by 30% (curve c); and an absorption spectrum of the commercial hematoporphyrin photosensitizer HpD is decreased more, reaching about 50% (curve d). Therefore, in the same condition, the hypocrellin derivative prepared in the present invention has a better photostability than the commercial photosensitizers.

Data set [3] can be described thus: absorption spectrum (maximum absorption wavelength, molar extinction coefficient). The format is physicochemical.
The nature of data set [4]: water solubility in normal saline. The format is physicochemical. To be noted: per milliliter of normal saline. The procedure:
Most of photosensitizer molecules disclosed in this patent contain a large number of hydrophilic groups, such as a polyethylene glycol chain, a quaternary ammonium salt, a carboxyl group, and a sulfonic acid group, etc., making the photosensitizer molecules have very high water solubility in a physiological condition; and experiments indicate that each milliliter of normal saline or glucose injection can dissolve more than 5 mg of such the photosensitizer molecules, presenting excellent water solubility. Therefore, the photosensitive drug can be well transported in blood vessels during intravenous injection, without causing a vascular blockage. HB-1c-C2-N+ prepared in example 4 contains two quaternary ammonium salts, and each milliliter of normal saline can dissolve more than 20 mg of photosensitizer molecules; HC-1c-PEG6 prepared in example 6 contains two 6-PEG chains, and each milliliter of normal saline can dissolve more than 20 mg of photosensitizer molecules; HB-8c prepared in example 19 contains two carboxyl groups, and each milliliter of normal saline can dissolve more than 10 mg of photosensitizer molecules; HB-13c prepared in example 35 contains two carboxyl groups, and each milliliter of normal saline can dissolve more than 10 mg of photosensitizer molecules; and HB-13c-PEG8 prepared in example 37 contains two 8-PEG chains, and each milliliter of normal saline can dissolve more than 20 mg of photosensitizer molecules. These photosensitizer molecules all present excellent water solubility.

For data set [5], the system named is Hela cells. Nature of the data set: dark cytotoxicity experiment (MTT). To be noted: 10 μM, incubated half hour, FIG. 12(a). The procedure: Dark cytotoxicity experiment: cultured Hela cells were digested with 0.25% trypsin and pipetted to prepare a single-cell suspension, the number of cells was adjusted to about 2×10^4 per milliliter, and 200 uL of the suspension was seeded in a well of a 96-well culture plate, which is placed in a 37° C. incubator containing 5% CO2 for cultivation. […] A cellular survival rate was measured by means of the MTT method. 20 uL of MTT was added to each well, wherein the MTT is MTT prepared with PBS and having a concentration of 5 mg/ml. The culture plate was placed in the 37° C. incubator containing 5% CO2 for further cultivation for 4 hours, after which the cultivation was terminated. A supernatant in the well was extracted and discarded carefully. Then, 150 uL of dimethyl sulfoxide was added to each well, and the culture plate was shaken by using a micro shaker for 10 minutes to fully dissolve a purple crystal substance. A wavelength of 570 nm was selected to measure an optical density value (i.e., OD value) of each well on a microplate reader, and the cellular survival rate was calculated in accordance with the following formula: cellular survival rate=OD value of an experimental group/OD value of a blank group×100%.

For data set [6], the system named is Hela cells. Nature of the data set: photo-cytotoxicity experiment (MTT, 635 nm laser). The format is cell-based. The procedure:
Photo-cytotoxicity experiment on cell: cultured Hela cells were digested and pipetted with 0.25% trypsin and to prepare a single-cell suspension, the number of cells was adjusted to about 2×10^4 per milliliter, and 200 uL of the suspension was seeded in a well of a 96-well culture plate, which is placed in a 37° C. incubator containing 5% CO2 for cultivation. After the cells adhere to the wall, a supernatant culture solution was discarded, and photosensitizers of different concentrations, that is, the hematoporphyrin derivative HpD, the hypocrellin B HB, or HB-1c-PEG6 synthesized in example 3, were added in a strictly lucifugous condition in accordance with experimental designs, and the culture plate was placed in the 37° C. incubator containing 5% CO2 for further cultivation and incubation for 1 hour. Then, a semiconductor laser with a wavelength of 635 nm was used for irradiation, a power density was adjusted to 20 mW/cm^2, light beams were evenly and vertically applied onto the 96-well culture plate, and an irradiation time was 1000 S. In addition, each 96-well culture plate is provided with a blank group, and 6 holes were provided for in each condition. After irradiation, the culture plate was placed in the 37° C. incubator containing 5% CO2 for further cultivation and incubation for 24 hours, and then a cellular survival rate was measured. The cellular survival rate was measured by means of the MTT method. 20 uL of MTT was added to each well, wherein the MTT is MTT prepared with PBS and having a concentration of 5 mg/ml. The culture plate was placed in the 37° C. incubator containing 5% CO2 for further cultivation for 4 hours, after which the cultivation was terminated. A supernatant in the well was extracted and discarded carefully. Then, 150 uL of dimethyl sulfoxide (DMSO) was added to each well, and the culture plate was shaken by using a micro shaker for 10 minutes to fully dissolve a purple crystal substance. A wavelength of 570 nm was selected to measure an optical density value (i.e., OD value) of each well on a microplate reader, and the cellular survival rate was calculated in accordance with the following formula: cellular survival rate=OD value of an experimental group/OD value of a blank group×100%.

Setting [7] is: 160 nM, 635 nm laser, FIG. 12(b).
Setting [8] is: 240 nM, 635 nm red light, FIG. 16(b).
[9] abbreviates: 200 nM, 635 nm light, FIG. 14(b).

Consider `COCCOCCOCCOCCOCCOCCOCCC(=O)OCCNc1c2c3c4c(c(OC)c(=O)c5c(NCCOC(=O)CCOCCOCCOCCOCCOCCOCCOC)cc(OC)c(c6c(OC)cc(O)c(c1=O)c63)c54)CC(C)=C2` [HC-2d-PEG6], for which, in data set [1], the singlet oxygen yield was determined as 32%. Moreover, in data set [2], the “decrease of absorption intensity at the maximum wavelength” value (from here on “decrease of absorption intensity”) was “less than 10%”. Also, in data set [3], the maximum absorption wavelength was determined as 624 nm and the molar extinction coefficient is 31,500 M^−1cm^−1.

In the case of `C=Cc1c(C)c2cc3nc(c(CC(=O)O)c4[nH]c(cc5nc(cc1[nH]2)C(C)=C5CC)c(C)c4C(=O)O)[C@@H](CCC(=O)O)[C@@H]3C` [Ce6, reference compound], the “decrease of absorption intensity” value in data set [2] came out at 30%. Moreover, in data set [3], the maximum absorption wavelength is 650 nm and the molar extinction coefficient entry is given as “less than 20000 M^−1cm^−1”.

Take `COc1c2c3c4c(c(NCCCC(=O)O)c(=O)c5c(NCCCC(=O)O)cc(OC)c(c6c(OC)cc(O)c(c1=O)c63)c54)C=C(C)C2C(C)=O` (stereo not shown) [HB-8c]: the singlet oxygen yield in data set [1] is given as 30%. In data set [3], the maximum absorption wavelength is recorded as 620 nm and the molar extinction coefficient is recorded as 29,500 M^−1cm^−1. The “amount dissolved by each milliliter of normal saline” value (“amount dissolved by each milliliter” for short) in data set [4] is recorded as “more than 10 mg”.

In data set [1], `COCCOCCOCCOCCOCCOCCOCCC(=O)OCCOCCNc1c2c3c4c(c(OC)c(=O)c5c(O)cc(OC)c(c6c(OC)cc(NCCOCCOC(=O)CCOCCOCCOCCOCCOCCOCCOC)c(c1=O)c63)c54)C(C(C)=O)C(C)=C2` (stereo not shown) [HB-1c-PEG6] displayed a singlet oxygen yield of 34%. In data set [3], the maximum absorption wavelength is listed as 628 nm and the molar extinction coefficient was 34,500 M^−1cm^−1. For the same compound, the “cytotoxicity (dark toxicity)” value in data set [5] was “basically non-cytotoxic”. In addition, the Hela cells killed result in data set [6] (setting [7]) is “more than 90%”.

In data set [1], `COc1c2c3c4c(c(NCCO)c(=O)c5c(NCCO)cc(OC)c(c6c(OC)cc(O)c(c1=O)c63)c54)C=C(C)C2` [HC-2c] yielded a singlet oxygen yield of 40%. Moreover, the “decrease of absorption intensity” value in data set [2] is reported as “less than 10%”. Further, in data set [3], the maximum absorption wavelength was found to be 636 nm and the molar extinction coefficient is 31,000 M^−1cm^−1.

`COc1c(O)c2c(=O)cc(OC)c3c4c(OC)cc(=O)c5c(O)c(OC)c6c(c(c1CC(C)=C6C(C)=O)c23)c54` [HB, hypocrellin B]: in data set [3], the maximum absorption wavelength is reported as 450 nm. Further, the Hela cells killed entry in data set [6] (setting [7]) is “about 30%”; in data set [6] (160 nM, 635 nm laser, FIG. 12(b), listed as hypocrellin B) it was “about 20%”; in data set [6] (160 nM, red light, FIG. 17(b)), 30%; in data set [6] (200 nM, red light, FIG. 18(b)), 60%; in data set [6] (setting [8]), 30%.

As to `COc1c2c3c4c(c(OC)c(=O)c5c(O)cc(OC)c(c6c(OC)cc(O)c(c1=O)c63)c54)CC(C)=C2` [HC, deacetyl hypocrellin], the Hela cells killed in data set [6] (140 nM, 635 nm light, FIG. 13(b)) amounted to 40%; in data set [6] (setting [9]), 50%; in data set [6] (240 nM, 635 nm light, FIG. 15(b)) it was 50%.

`COc1c2c3c4c(c(NCC5CCC(C(=O)O)CC5)c(=O)c5c(NCC6CCC(C(=O)O)CC6)cc(OC)c(c6c(OC)cc(O)c(c1=O)c63)c54)C=C(C)C2C(C)=O` (stereo not shown) [HB-13c] yielded a singlet oxygen yield in data set [1] of 30%. Besides, in data set [3], the maximum absorption wavelength came out at 621 nm and the molar extinction coefficient is recorded as 29,500 M^−1cm^−1. In addition, in data set [4], the “amount dissolved by each milliliter” value is “more than 10 mg”. Moreover, the Hela cells killed entry in data set [6] (setting [8]) was “more than 85%”.

In data set [1], `COc1c2c3c4c(c(NCCCC(=O)O)c(=O)c5c(NCCCC(=O)O)cc(OC)c(c6c(OC)cc(O)c(c1=O)c63)c54)C=C(C)C2` [HC-8c] returned a singlet oxygen yield of 27%. In data set [3], the maximum absorption wavelength is 618 nm and the molar extinction coefficient is listed as 28,500 M^−1cm^−1. Moreover, the Hela cells killed entry in data set [6] (setting [9]) is given as “more than 85%”.

`COCCOCCOCCOCCOCCOCCOCCOCCOCCNC(=O)C1CCC(CNc2c3c4c5c(c(OC)c(=O)c6c(O)cc(OC)c(c7c(OC)cc(NCC8CCC(C(=O)NCCOCCOCCOCCOCCOCCOCCOCCOCCOC)CC8)c(c2=O)c74)c65)CC(C)=C3)CC1` (stereo not shown) [HC-13c-NH-PEG8] returned a singlet oxygen yield in data set [1] of 38%. In addition, in data set [3], the maximum absorption wavelength turned out to be 630 nm and the molar extinction coefficient is reported as 33,500 M^−1cm^−1. Also, the Hela cells killed entry in data set [6] (200 nM, red light, FIG. 18(b)) is “more than 85%”.

As for `COc1c(O)c2c(=O)cc(OC)c3c4c(OC)cc(=O)c5c(NCCCC(=O)O)c(NCCCC(=O)O)c6c(c(c1C(C(C)=O)C(C)=C6)c23)c54` (stereo not shown) [HB-8a], in data set [1], the singlet oxygen yield is on record as 25%. In data set [3], the maximum absorption wavelength stood at 622 nm and the molar extinction coefficient is listed as 27,500 M^−1cm^−1. For the same compound, the “amount dissolved by each milliliter” value in data set [4] is reported as “more than 5 mg”.

For the compound `COc1c2c3c4c(c(NC5CCC(C(=O)O)CC5)c(=O)c5c(NC6CCC(C(=O)O)CC6)cc(OC)c(c6c(OC)cc(O)c(c1=O)c63)c54)C=C(C)C2C(C)=O` (stereo not shown) [HB-14c], the singlet oxygen yield in data set [1] worked out at 26%. Further, in data set [3], the maximum absorption wavelength was found to be 621 nm and the molar extinction coefficient is recorded as 28,000 M^−1cm^−1.

`COCCOCCOCCOCCOCCOCCOC(=O)CCCCCNc1c(O)c2c(=O)cc(OC)c3c4c(OC)cc(=O)c5c(NCCCCCC(=O)OCCOCCOCCOCCOCCOCCOC)c(OC)c6c(c(c1C=C(C)C6)c23)c54` [HC-9b-PEG6] showed a singlet oxygen yield in data set [1] of 30%. In data set [3], the maximum absorption wavelength was found to be 622 nm and the molar extinction coefficient is 30,500 M^−1cm^−1.

With `COc1c2c3c4c(c(NCC(=O)O)c(=O)c5c(NCC(=O)O)cc(OC)c(c6c(OC)cc(O)c(c1=O)c63)c54)C=C(C)C2C(C)=O` (stereo not shown) [HB-7c], the singlet oxygen yield in data set [1] amounted to 27%. Besides, in data set [3], the maximum absorption wavelength is given as 618 nm and the molar extinction coefficient was 27,500 M^−1cm^−1.

The compound `COc1c(NC2CCC(O)CC2)c2c(=O)cc(OC)c3c4c(OC)cc(=O)c5c(O)c(NC6CCC(O)CC6)c6c(c(c1C(C(C)=O)C(C)=C6)c23)c54` (stereo not shown) [HB-17b] displayed a singlet oxygen yield in data set [1] of 20%. Also, in data set [3], the maximum absorption wavelength came to 620 nm and the molar extinction coefficient is recorded as 25,500 M^−1cm^−1.

In data set [1], `COCCOC(=O)C1CCC(CNc2c(NCC3CCC(C(=O)OCCOC)CC3)c3c(=O)cc(OC)c4c5c(OC)cc(=O)c6c(O)c(OC)c7c(c(c2C=C(C)C7)c34)c65)CC1` (stereo not shown) [HC-13a-PEG1] displayed a singlet oxygen yield of 32%. Moreover, in data set [3], the maximum absorption wavelength was determined as 622 nm and the molar extinction coefficient is reported as 30,000 M^−1cm^−1.
